Reference: ChEMBL document CHEMBL5120941 (ACS Med Chem Lett, 2022)
In brackets after ≈: the same amount, converted by molar mass.

What was measured:
[1] = Aqueous solubility of the compound in deionized water at 25 degC; format: physicochemical
Staphylococcus aureus [2] = experiment: Antibacterial activity against Staphylococcus aureus ATCC 19636 infected ICR mouse septicemia model assessed as increase in animal's survival rate administered iv at 1 hr post-infection and measured after 48 hrs; format: functional
[3] = AUC (0 to 24 hrs) in Sprague-Dawley rat at 10 mg/kg, iv by HLPC-MS/MS analysis; format: ADME, organism-based; design: time < 24 hr, dose 10 mg/kg, route iv; conditions: in vivo
Staphylococcus aureus [4] = experiment: Antibacterial activity against Staphylococcus aureus ATCC 19636 infected Sprague-Dawley rat peritonitis model assessed as increase in animal's survival rate administered iv at 1 hr post-infection and measured after 48 hrs; format: functional

Work on `O=C1C=CN(c2c(F)cc(N3C[C@H](CNc4ccon4)OC3=O)c(F)c2F)CC1` [CONTEZOLID] yielded a solubility [1] of 0.2 mg/mL (≈ 490 µM), an ED50 (Staphylococcus aureus [2]) of 4.7 mg/kg and an AUC(0-t) at 24 h [3] of 25.4 µg·h/mL. For the same molecule, the ED50 (Staphylococcus aureus [4]) was 10.3 mg/kg.
